Data: patent publication US8546452B2, “S1P3 receptor antagonist” (TOA Eiyo Ltd., priority 2005, dated 2013)
pIC50: −log10 of the molar value. Where two headings read alike, the source gives them in different places.

Legend:
Assay type in all cases: cell-based
[1] = biological target: T1, hS1P1 (Homo sapiens, UniProt P21453); test: S1P receptor subtype selectivity, S1P-induced [Ca2+]i increase in CHO-K1 cells stably expressing S1P1 (Calcium3)
T1 construct: expressed in transfected cells
Experimental: (§1) The selectivity to the S1P receptor subtype was examined in the following manner. […] Furthermore, a Calcium3 (Molecular Devices, Inc.) solution prepared in HBSS (+) buffer, which is a fluorescent Ca^2+ indicator, was added, and the cells were incubated for 60 minutes at 37° C. Then, 100 μL of a test compound solution prepared to a concentration of 2×10 μmol/L was added, and the cells were incubated for 20 minutes at 37° C. […] The indicator was prepared and used according to the instruction manual.
(§2) A solution of the test compound was prepared by dissolving each of the test compounds in DMSO to a concentration of 10 mmol/L, and then diluting the solution with an HBSS (+) buffer solution to the predetermined concentration. […] The measurement values were obtained by subtracting the maximum RFU value for the blind test from the maximum RFU values for control or each test compounds. A decrease in the measurement value for the test compound relative to the control was indicated as the suppression rate (%), from which the IC50 value was calculated.

[2] = biological target: T2, hS1P2 (Homo sapiens, UniProt O95136); test: S1P receptor subtype selectivity, S1P-induced [Ca2+]i increase in CHO-K1 cells stably expressing S1P2 (Calcium3)
T2 construct: expressed in transfected cells
T2 sequence (O95136 whole entry): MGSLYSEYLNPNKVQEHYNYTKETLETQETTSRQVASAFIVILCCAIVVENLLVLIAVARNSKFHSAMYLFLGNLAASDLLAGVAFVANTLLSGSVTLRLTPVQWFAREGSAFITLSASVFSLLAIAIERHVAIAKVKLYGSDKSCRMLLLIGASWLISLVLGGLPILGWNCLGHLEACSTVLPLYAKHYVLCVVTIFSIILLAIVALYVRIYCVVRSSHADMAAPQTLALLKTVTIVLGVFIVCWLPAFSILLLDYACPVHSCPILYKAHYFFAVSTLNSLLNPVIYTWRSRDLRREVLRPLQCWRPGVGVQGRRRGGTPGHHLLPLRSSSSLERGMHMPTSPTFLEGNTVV
Experimental: as §1, §2

[3] = biological target: hS1P3 (Homo sapiens, UniProt Q99500); test: Suppressive effect on S1P-induced increase in [Ca2+]i, CHO-K1 cells expressing S1P3 (Fura 2-AM), IC50; settings: S1P solution 50 nmol/L, read-out: hS1P3 suppression IC50
hS1P3, sequence (Q99500 whole entry): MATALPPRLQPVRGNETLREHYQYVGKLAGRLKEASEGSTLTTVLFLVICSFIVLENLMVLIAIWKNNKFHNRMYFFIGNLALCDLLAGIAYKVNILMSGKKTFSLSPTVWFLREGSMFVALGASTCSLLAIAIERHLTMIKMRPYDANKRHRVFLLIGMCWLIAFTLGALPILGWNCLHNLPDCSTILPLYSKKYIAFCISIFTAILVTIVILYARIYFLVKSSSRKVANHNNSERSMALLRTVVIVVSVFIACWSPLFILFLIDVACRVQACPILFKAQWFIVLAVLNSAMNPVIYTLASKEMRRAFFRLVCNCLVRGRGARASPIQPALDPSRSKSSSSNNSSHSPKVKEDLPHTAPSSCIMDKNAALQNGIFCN

[4] = 10 μM, CHO-K1 stably expressing S1P1, S1P solution 100 nmol/L, Calcium3, read-out: Suppression rate at 10 μM (%) hS1P1
[5] = 10 μM, CHO-K1 stably expressing S1P2, S1P solution 100 nmol/L, Calcium3, read-out: Suppression rate at 10 μM (%) hS1P2
[6] = CHO-K1, read-out: Suppression rate at 10 μM (%) hS1P1
[7] = CHO-K1, read-out: Suppression rate at 10 μM (%) hS1P2

T1 sequence (P21453 whole entry): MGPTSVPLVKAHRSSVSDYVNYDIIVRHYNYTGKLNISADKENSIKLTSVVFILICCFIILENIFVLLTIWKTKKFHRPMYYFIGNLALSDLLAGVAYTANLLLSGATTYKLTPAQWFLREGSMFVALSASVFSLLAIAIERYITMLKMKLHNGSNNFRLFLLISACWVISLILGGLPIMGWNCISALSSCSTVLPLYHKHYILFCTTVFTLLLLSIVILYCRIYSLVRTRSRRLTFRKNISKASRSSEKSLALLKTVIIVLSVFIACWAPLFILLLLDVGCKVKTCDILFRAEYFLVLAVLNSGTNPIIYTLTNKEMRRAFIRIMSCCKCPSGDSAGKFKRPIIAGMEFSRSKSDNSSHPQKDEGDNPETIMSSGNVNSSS

SMILES	inhibition at 10 µM [1, 4] [%]	inhibition at 10 µM [2, 5] [%]	pIC50 [3]	inhibition at 10 µM [1, 6] [%]	inhibition at 10 µM [2, 7] [%]
CCOC(=O)C(=NNc1ccc(Cl)cc1)Nc1cccc(C#N)c1 [Compound 20, ethyl 1-(4-chlorophenylhydrazono)-1-(3-cyanophenylamino)acetate]	–	–	5.66	-3.5	-4.6
CC(C)(C)NC(=O)C(=NNc1ccc(Cl)cc1)Nc1cccc(F)c1 [Compound 28, N-tert-butyl-[1-(4-chlorophenylhydrazono)-1-(3-fluorophenylamino)]acetamide]	–	–	5.10	14.6	14.2
CC(C)(C)NC(=O)C(=NNc1ccc(Cl)cc1)Nc1ccc(Cl)cc1 [Compound 29, N-tert-butyl-[1-(4-chlorophenylamino)-1-(4-chlorophenylhydrazono)]acetamide]	–	–	5.29	29.7	17.4
CC(C)(C)C(=O)C(=NNc1cccc(Cl)c1)Nc1ccc(Cl)cc1 [Compound 42, 1-(4-chlorophenylamino)-1-(3-chlorophenylhydrazono)-3,3-dimethyl-2-butanone]	–	–	5.54	7.9	32.9
CC(C)(C)C(=O)C(=NNc1ccccc1)Nc1cccc(F)c1 [Compound 49, 1-(3-fluorophenylamino)-1-(phenylhydrazono)-3,3-dimethyl-2-butanone]	6.6	3.6	5.27	–	–
CC(C)(C)C(=O)C(=NNc1ccccc1)Nc1ccc(Cl)cc1 [Compound 50, 1-(4-chlorophenylamino)-1-(phenylhydrazono)-3,3-dimethyl-2-butanone]	–	–	5.43	25.1	13.6
CC(C)(C)C(=O)C(=NNc1ccc(F)cc1)Nc1cccc(F)c1 [Compound 53, 1-(3-fluorophenylamino)-1-(4-fluorophenylhydrazono)-3,3-dimethyl-2-butanone]	27.1	18.5	5.35	–	–
COc1ccc(NC(=NNc2ccc(F)cc2)C(=O)C(C)(C)C)cc1 [Compound 57, 1-(4-fluorophenylhydrazono)-1-(4-methoxyphenylamino)-3,3-dimethyl-2-butanone]	11.5	15	5.31	–	–
Cc1ccc(NN=C(Nc2ccc(Cl)cc2)C(=O)C(C)(C)C)cc1 [Compound 62, 1-(4-chlorophenylamino)-1-(4-methylphenylhydrazono)-3,3-dimethyl-2-butanone]	–	–	5.76	-9.7	7.4
Cc1ccc(NN=C(Nc2ccc(C)cc2)C(=O)C(C)(C)C)cc1 [Compound 63, 1-(4-methylphenylamino)-1-(4-methylphenylhydrazono)-3,3-dimethyl-2-butanone]	–	–	5.24	-9.1	-1.4
Cc1ccc(NN=C(Nc2cc(Cl)cc(Cl)c2)C(=O)C(C)(C)C)cc1 [Compound 64, 1-(3,5-dichlorophenylamino)-1-(4-methylphenylhydrazono)-3,3-dimethyl-2-butanone]	–	–	–	-1	9.1
O=C(C(=NNc1ccc(Cl)cc1)Nc1ccc(F)cc1)c1ccco1 [Compound 118, 1-(4-chlorophenylhydrazono)-1-(4-fluorophenylamino)-2-(2-furyl)-2-ethanone]	–	–	5.41	–	–
O=C(C(=NNc1ccc(Cl)cc1)Nc1ccc(Br)cc1)c1ccco1 [Compound 119, 1-(4-bromophenylamino)-1-(4-chlorophenylhydrazono)-2-(2-furyl)-2-ethanone]	–	–	5.37	–	–
O=C(C(=NNc1ccc(Cl)cc1)Nc1cccc(C(F)(F)F)c1)c1ccco1 [Compound 120, 1-(4-chlorophenylhydrazono)-1-(3-trifluoromethylphenylamino)-2-(2-furyl)-2-ethanone]	–	–	5.26	–	–
O=C(C(=NNc1ccc(Cl)cc1)Nc1ccc(Cl)cc1)c1cccs1 [Compound 125, 1-(4-chlorophenylamino)-1-(4-chlorophenylhydrazono)-2-(2-thienyl)-2-ethanone]	–	–	5.08	–	–

Further lines, with some results ahead:

inhibition at 10 µM [1, 4] [%]	inhibition at 10 µM [2, 5] [%]	pIC50 [3]	SMILES	inhibition at 10 µM [1, 6] [%]	inhibition at 10 µM [2, 7] [%]
26.1	-16.7	5.51	CCOC(=O)C(=NNc1ccc(Cl)cc1)Nc1cccc(F)c1 [Compound 13, ethyl 1-(4-chlorophenylhydrazono)-1-(3-fluorophenylamino)acetate]	–	–
-25.4	-8.6	5.44	CCOC(=O)C(=NNc1ccc(Cl)cc1)Nc1ccccc1 [Compound 19, ethyl 1-(4-chlorophenylhydrazono)-1-(phenylamino)acetate]	–	–
18.4	27.1	5.45	CC(C)(C)C(=O)C(=NNc1cccc(Cl)c1)Nc1cccc(F)c1 [Compound 41, 1-(3-chlorophenylhydrazono)-1-(3-fluorophenylamino)-3,3-dimethyl-2-butanone]	–	–
29.5	26.2	5.99	CC(C)(C)C(=O)C(=NNc1ccccc1)Nc1ccc(Cl)c(Cl)c1 [Compound 52, 1-(3,4-dichlorophenylamino)-1-(phenylhydrazono)-3,3-dimethyl-2-butanone]	–	–
-2.9	8.1	5.49	Cc1ccc(NN=C(Nc2cccc(F)c2)C(=O)C(C)(C)C)cc1 [Compound 61, 1-(3-fluorophenylamino)-1-(4-methylphenylhydrazono)-3,3-dimethyl-2-butanone]	–	–
5.1	10	6.17	Cc1ccc(NN=C(Nc2ccc(Cl)c(Cl)c2)C(=O)C(C)(C)C)cc1 [Compound 65, 1-(3,4-dichlorophenylamino)-1-(4-methylphenylhydrazono)-3,3-dimethyl-2-butanone]	–	–
5.1	22.3	5.72	CC(C)(C)C(=O)C(=NNc1ccc(Br)cc1)Nc1cccc(F)c1 [Compound 73, 1-(4-bromophenylhydrazono)-1-(3-fluorophenylamino)-3,3-dimethyl-2-butanone]	–	–
–	–	6.47	CC(C)(C)C(=O)C(=NNc1ccc(Cl)c(Cl)c1)Nc1cccc(Cl)c1 [Compound 123, 1-(3-chlorophenylamino)-1-(3,4-dichlorophenylhydrazono)-3,3-dimethyl-2-butanone]	–	–
–	–	6.35	CC(C)(C)C(=O)C(=NNc1ccc(Cl)c(Cl)c1)Nc1ccc(Cl)cc1 [Compound 124, 1-(4-chlorophenylamino)-1-(3,4-dichlorophenylhydrazono)-3,3-dimethyl-2-butanone]	–	–
–	–	6.09	C#Cc1ccc(NC(=NNc2ccc(Cl)c(Cl)c2)C(=O)C(C)(C)C)cc1 [Compound 132, 1-(3,4-dichlorophenylhydrazono)-1-(4-ethynylphenylamino)-3,3-dimethyl-2-butanone]	–	–
–	–	6.05	CC(C)(C)C(=O)C(=NNc1ccc(Cl)cc1)Nc1ccc(Cl)c(F)c1 [Compound 135, 1-(4-chloro-3-fluorophenylamino)-1-(4-chlorophenylhydrazono)-3,3-dimethyl-2-butanone]	–	–
–	–	5.70	CCCCC(=O)C(=NNc1ccc(Cl)cc1)Nc1cccc(Cl)c1 [Compound 141, 1-(3-chlorophenylamino)-1-(4-chlorophenylhydrazono)-2-hexanone]	–	–
